This passage reports IC50 and EC50 results from patent US20190127366A1 (LifeSci Pharmaceuticals, Inc., priority 2015, published 2019).

As a reminder, the IC50 is the concentration at which inhibition is half-maximal. The EC50 is the concentration at which the effect is half-maximal.

The target of experiment [1] is T1, human complement factor D (Homo sapiens, UniProt P00746).
T1 construct: purchased R&D Systems 1824-SE
Kind of experiment: In vitro enzyme inhibition (Z-Lys-SBzl/DTNB absorbance assay). Type of experiment: biochemical. As to conditions: Complement Factor D (R&D Systems), substrate Z-Lys-SBzl, A405 nm; read-out: CFD IC50. The essentials:
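Factor D (6.25 ng/μL before addition) preincubated 5 min RT with compound (8 points from 50 μM, 6-fold, 0.5% DMSO final) in 50 mM Tris/HCl pH 7.5, 1 M NaCl, then Z-Lys-SBzl/DTNB added (200 μM each before addition). A405 read kinetically every 30 s for 60 min; IC50 from variable-slope fit, controls with and without enzyme.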

Experiment [2] deals with alternative pathway (AP) hemolytic activity. As to the kind of experiment: AP hemolysis inhibition assay. The experiment is classed as cell-based. Particulars: Erythrocyte, 1 h; Normal Human Serum, chicken or rabbit erythrocytes, 60 min at 37° C., OD 414 nm. The protocol: The ability of the compounds disclosed herein to inhibit alternative pathway (AP) hemolytic activity was determined. Red blood cells (RBC), chicken or rabbit erythrocyctes (SbjBio), were washed three time using assay buffer containing 0.1% gelatin, 5 mM Veronal, 145 mM NaCl, 0.025% NaN3, 10 mM Mg-EGTA pH 7.3. In 100 μL reaction system, 1300 to 1500 ng/μL final concentration of Normal Human Serum (CompTech) was incubated with compound for 15 min at 37° C. Then 2×10^6 cells/well of chicken or rabbit erythrocytes in assay buffer were added and incubated for an additional 60 min at 37° C. Positive control (100% lysis) consists of serum and RBC, and negative control (0% lysis) consists of assay buffer and RBC only. Samples were centrifuged at 2000 g for 5 min, and supernatants collected. Optical density of the supernatant is monitored at 414 nm using Synergy 2 (BioTek). Percentage lysis in each sample is calculated relative to positive control (100% lysis).
Table 3 discloses the inhibitory activity of the compounds provided herein in the hemolysis assay.

T1 sequence (P00746 26-253): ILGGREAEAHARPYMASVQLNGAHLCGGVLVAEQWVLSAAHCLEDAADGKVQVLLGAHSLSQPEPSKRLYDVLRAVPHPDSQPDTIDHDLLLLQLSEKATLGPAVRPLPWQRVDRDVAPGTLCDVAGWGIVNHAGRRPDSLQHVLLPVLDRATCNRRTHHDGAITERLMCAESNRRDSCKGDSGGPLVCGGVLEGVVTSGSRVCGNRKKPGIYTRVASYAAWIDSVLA

For `NC(=O)c1nn(CC(=O)N2[C@@H]3CC[C@@H](C3)[C@H]2C(=O)Nc2cccc(Cl)n2)c2ccc(C3CC3)cc12` [Example 56, 1-(2-((1R,3S,4S)-3-((6-chloropyridin-2-yl)carbamoyl)-2-azabicyclo[2.2.1]heptan-2-yl)-2-oxoethyl)-5-cyclopropyl-1H-indazole-3-carboxamide 2,2,2-trifluoroacetate], the half-inhibitory concentration (IC50) in experiment [1] was 0.1 to 1 µM. The EC50 in experiment [2] lay in the range of 0.1 to 1 µM.
Consider `Cc1cc(Cl)nc(NC(=O)[C@@H]2[C@H]3CC[C@H](C3)N2C(=O)Cn2nc(C(N)=O)c3ccccc32)c1` [Example 77, 1-(2-((1R,3S,4S)-3-((6-chloro-4-methylpyridin-2-yl)carbamoyl)-2-azabicyclo[2.2.1]heptan-2-yl)-2-oxoethyl)-1H-indazole-3-carboxamide], for which the half-inhibitory concentration (IC50) in experiment [1] lay within 0.1 to 1 µM. For the same compound, the EC50 in experiment [2] lay within 0.1 to 1 µM.
